Source: the METLIN SMRT retention time set (Domingo-Almenara et al. 2019)

Assay: gradient 5% acetonitrile 3 min, to 50% in 2 min, to 85% in 15 min, held 3 min, 100 µL/min
Conditions: column: Zorbax Extend-C18 2.1 x 50 mm; eluents: water / acetonitrile, 0.1% formic acid
Method in brief: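 Retention time was recorded from adduct peaks, which were picked computationally and each inspected manually. Pure standards ran in mixtures of ~100 molecules on HPLC coupled to a quadrupole time-of-flight mass spectrometer, in positive and negative ionization mode, through a Zorbax Extend-C18 column (2.1 × 50 mm, 1.8 μm) at 100 μL/min. Eluents were water and acetonitrile, each with 0.1% formic acid.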

Compound | RP-LC retention time [s]
CN(C1CCc2nn(C)c(=O)n2CC1)S(=O)(=O)c1cccc2cccnc12 (stereo unspecified) | 671
Cc1ccc2c(Nc3ccc(Cl)cc3)c(C(=O)N3CCOCC3)cnc2n1 | 608
OC(COCC(c1ccccc1)c1ccccc1)Cn1cnc2ccccc21 (stereo unspecified) | 639
O=C(c1ccco1)N1CCC(n2cnnc2-c2ccccc2)CC1 | 639
CCC1Oc2ccc(S(=O)(=O)N3CCC(C(=O)N4CCCCCC4)CC3)cc2NC1=O (stereo unspecified) | 842
CC1CCC(NC(=O)c2nnc(-c3ccc(S(=O)(=O)N4CCOCC4)cc3)o2)CC1 (stereo unspecified) | 917
CCn1nccc1C(=O)Nc1cnc(N2CCCCCC2)nc1 | 834
O=C(NC1CCCCC1)C1CCCN(S(=O)(=O)c2cc(-c3noc(C4CCCC4)n3)cs2)C1 (stereo unspecified) | 1220
COc1ccccc1C(=O)N1CCC2(C1)C(=O)Nc1ccccc12 (stereo unspecified) | 672
O=C(Nc1cccnc1)C1CCCN(S(=O)(=O)c2cc(-c3noc(C4CCCC4)n3)cs2)C1 (stereo unspecified) | 825
CC(C)CC(=O)Nc1ccc(-n2cnc(C(=O)N3CC(C)CC(C)C3)c2)nc1 (stereo unspecified) | 839
COc1ccccc1NC(=O)c1cccc(N2CCNC(c3ccccc3)C2)n1 (stereo unspecified) | 693
Cn1c(C(=O)N2CCN(c3ccccn3)CC2)cc2c(=O)n(C)c3ccccc3c21 | 562
CCC1CCCCN1C(=O)c1cnc2nc(C)ccc2c1Nc1cc(OC)ccc1OC (stereo unspecified) | 689
O=C(NC1CCN(Cc2ccccc2)CC1)C1CCCN(c2ncc(-c3cccc(F)c3)cn2)C1 (stereo unspecified) | 753
Cc1ccc2nc(-c3ccccc3F)c(Nc3c(C)cccc3C)n2c1 | 793
CCS(=O)(=O)c1ccc2c(c1)N(Cc1nc(-c3ccc(OC(F)(F)F)cc3)no1)C(=O)CO2 | 1030
CC(C)Cc1ccc(S(=O)(=O)N(CCN2CCCCC2C)CC(=O)N2CCNCC2)cc1 (stereo unspecified) | 621
O=C(NCCc1cccs1)C1CCN(Cc2cc3ccccc3n2Cc2cccc(Cl)c2)CC1 | 833
CCNS(=O)(=O)c1cccnc1Nc1ccc(F)cc1 | 942
COc1ccc(N2CCN(C(=O)Cn3nc(C(=O)N4CCCC4)c4ccccc43)CC2)cc1 | 753

Compound | RP-LC retention time [s]
COCCOC1CCN(C(=O)Nc2ccc3c(c2)OCCO3)CC1 | 668
CC12CC(c3ccccc3O1)C(C(=O)N1CCN(C(=O)c3ccco3)CC1)C(=O)N2 (stereo unspecified) | 624
O=C(NC1(c2nc(-c3ccncc3)no2)CCCCC1)c1ccc2c(c1)OCO2 | 876
O=C(C1CC1)N1CCc2ccc(NS(=O)(=O)C3CCCCC3)cc21 | 830
COc1cccc2c1OC1(C)CC2C(S(=O)(=O)c2ccc(Cl)cc2)C(=O)N1C (stereo unspecified) | 938
Cc1ccc(Nc2c(-c3cc(Br)ccc3O)nc3ncccn23)cc1Cl | 1170
Cc1ccc(-c2noc(-c3cccc(S(=O)(=O)N4CCCC4)c3)n2)cc1 | 1280
CSc1nc(N2CCCC2)c2cnn(CCNC(=O)c3cc(-c4ccco4)on3)c2n1 | 849
CC(C)(C)c1csc(-c2csc(S(=O)(=O)NCc3ccc4c(c3)OCO4)c2)n1 | 1170
CCOc1nc2ccccc2nc1N1CCCC(C(=O)Nc2cc(C)cc(C)c2)C1 (stereo unspecified) | 1320
CS(=O)(=O)N1CCC(OC2CCN(C(=O)c3cccnc3)CC2)CC1 | 583
CCc1nc2ccccc2n1CC(O)COc1cc(C)c(Cl)c(C)c1 (stereo unspecified) | 770
O=C(c1cccs1)N1CCCC(c2ccnc(Nc3cccc(F)c3)n2)C1 (stereo unspecified) | 957
O=C(c1cnc2sc3c(n2c1=O)CCC3)N1CCN(c2ncccn2)CC1 | 658
C=CCNS(=O)(=O)c1c(C)[nH]c(=O)[nH]c1=O | 582
CN1CC[C@@H](c2ccc(F)cc2)[C@H](COc2ccc3c(c2)OCO3)C1 | 766
O=C(NCCc1cccc(F)c1)C1CC(=O)N(c2n[nH]c3cccc(F)c23)C1 (stereo unspecified) | 720
COC(=O)C1=C(C(=O)OC)SC2(S1)C(C(=O)OC)=C(C(=O)OC)Sc1c2ssc1=O | 977
O=C(CC1c2ncccc2C(=O)N1c1ccccc1)N1CCN(C2CCCCC2)CC1 (stereo unspecified) | 591
O=C(Nc1cccc(Cl)c1F)N1CCCC1c1nncn1-c1ccccc1 (stereo unspecified) | 745
COc1ccc(NC(=O)Cn2nc3nc(N4CCCC4)ccn3c2=O)cc1Cl | 676

Now from value to compound:

RP-LC retention time [s] | Compound
798 | COc1cccc(CC(=O)N2CCC3(CC2)NC(=O)c2cc(C)ccc2N3C)c1
859 | COc1ccc(NC(=O)c2cccn2Cc2noc(C)n2)cc1Cl
782 | O=C(NCc1ccccc1)NCC1Cn2cccc2C(=O)N1Cc1ccccc1 (stereo unspecified)
680 | CC(NC(=O)Cc1ccc(Cl)cc1)C(=O)Nc1nc2ccccc2[nH]1 (stereo unspecified)
1040 | CCC(C)NC(=O)c1c(C)oc2ccn(Cc3ccc(F)cc3)c(=O)c12 (stereo unspecified)
653 | CCN1CCC2(CC1)OC(=O)C(C)=C2C(=O)NCCc1ccc(Cl)cc1
828 | O=C(O)c1nnn(-c2ccc(Cl)cc2)c1C(F)(F)F
899 | CCOC(=O)c1sc(NC(=O)c2ccco2)nc1-c1ccccc1
916 | CCCCN1C(=O)C(NC(=O)c2cccc(OC)c2)(C(F)(F)F)C(C(C)=O)=C1C (stereo unspecified)
1090 | CCn1nnc(NCc2ccc(-c3ccc(C)c(Cl)c3)o2)n1
997 | CCn1c(=O)c(N2CCN(C(=O)Nc3cc(F)ccc3F)CC2)nc2ccccc21
758 | CC(=O)N1CCCc2cc(S(=O)(=O)CCC(=O)Nc3cc(C)ccc3C)ccc21
794 | CCCNC(=O)N1CCCN(C2=NS(=O)(=O)C(c3ccc(Cl)cc3)=C2C)CC1
852 | CCCCc1nnc(NC(=O)C2CCN(C(=O)c3ccc(Cl)cc3)CC2)s1
790 | COc1cc(CNC(=O)c2ccc3c(c2)N(C)C(=O)C2CCCCN32)cc(OC)c1OC (stereo unspecified)
950 | CCCn1cc(S(=O)(=O)Nc2cc(F)ccc2Cl)c2cccnc21
842 | CCc1ccc(CNC(=O)Cc2c(C(=O)O)c(C)cn2CC)cc1
611 | Cn1cc(-c2cc3n(n2)CCCN3C(=O)CCC(=O)NCCCN2CCOCC2)c2ccccc21
768 | CCn1cnc(S(=O)(=O)N2CCCC(C(=O)NCc3ccccc3)C2)c1 (stereo unspecified)
601 | Cc1ccc2cc(CCC(=O)NCCN3CCCCC3)c(=O)[nH]c2c1
756 | COc1ccc(Br)cc1CNC(=O)CN1C(=O)CSc2ncccc21
642 | Cc1ccn2c(NC(=O)CCc3ccccc3)c(-c3ccccc3)nc2c1
681 | O=C(CCc1cn(-c2ccccc2)nc1-c1ccc2c(c1)OCO2)NCCCN1CCOCC1
654 | COc1ccccc1CNC(=O)Cn1c(N2CCOCC2)nc(C)cc1=O
